Reference: US9802937B2, “Substituted pyrazolo{4,3-D}pyrimidines as kinase inhibitors” (ORIGENIS GMBH, priority 2011, dated 2017)
pIC50, pKi: −log10 of the molar value.

Columns and labels:
LRRK2 = LRRK2 (Homo sapiens, UniProt Q5S007); assay: LRRK2-LRRK2 G2019S-Assay (LanthaScreen Eu Kinase Binding Assay); settings: 5 nM LRRK2 or their mutants, 10 nM tracer 236, RT 1 h; read-out: LRRK2 Activities: IC50
Experimental: In the assay LanthaScreen™ Eu Kinase Binding Assay by Invitrogen Corporation (Carlsbad) the effect of invention of a compound on the phosphorylation is determined by measurement of fluorescence intensity emission ratio based on the binding and displacement of a proprietary, Alexa Fluor® 647-labeled, ATP-competitive kinase inhibitor scaffold (kinase tracer) to the kinase of interest. Binding of the tracer to the kinase is detected using a europium-labeled anti-tag antibody, which binds to the kinase of interest. Simultaneous binding of both the tracer and antibody to the kinase results in a high degree of FRET (fluorescence resonance energy transfer) from the europium (Eu) donor fluorophore to the Alexa Fluor® 647 acceptor fluorophore on the kinase tracer. Binding of an inhibitor to the kinase competes for binding with the tracer, resulting in a loss of FRET. The fluorescence intensity ratio is directly proportional to the amount of peptide phosphorylation.
To the wells of an 384 well small volume plate (Greiner, Frickenhausen) are added (i) the compound under test in 5% DMSO/distilled water (5 μl), (ii) 5 μl of the kinase antibody mixture resulting in a final concentration 5 nM LRRK2 or their mutants, 2 nM EU-Anti-GST antibody in 1× kinase buffer A. The reaction was started with addition of (iii) 5 μl resulting in a final concentration of 10 nM tracer 236. The assay plate was incubated at RT for 1 h and fluorescence intensitiy readings were collected using a TECAN M1000 at two wavelengthes of λex 340/λem 615 nm and λex 340/λm 665 nm with a delay time of 100 μs and an integration time of 200 μs after 60 minutes. The emission ratio was calculated by division of the acceptor/tracer emission ([…]) by the antibody/donor emission ([…]). The inhibitor concentration was plotted versus the emission ratio to determine the IC50 using XLFit 5.0 (IDBS, Guildford) to fit to a sigmoidal dose response curve with a variable slope.

SYK kinase = molecular target: T1, SYK kinase (Homo sapiens, UniProt P43405); assay: SYK Assay (OMNIA KINASE ASSAY, SOX peptide fluorescence); type: biochemical; settings: apparent Ki calculated from the IC50 using the Cheng-Prusoff equation; 1 mM ATP, 30° C.; read-out: SYK Activities: Ki
T1 construct: purchased Invitrogen, Carlsbad
Procedure, shortened: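 Continuous Omnia assay: SYK phosphorylation of SOX-labelled Tyr 7 peptide (10 µM) with 1 mM ATP and 0.2 mM DTT at 30 °C. Fluorescence (ex 360/em 485 nm) read every 30 s for 30 min. Reaction velocity versus inhibitor concentration gives IC50, converted to apparent Ki by Cheng-Prusoff.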

Sequence of LRRK2 (Q5S007 970-2527 limits assumed): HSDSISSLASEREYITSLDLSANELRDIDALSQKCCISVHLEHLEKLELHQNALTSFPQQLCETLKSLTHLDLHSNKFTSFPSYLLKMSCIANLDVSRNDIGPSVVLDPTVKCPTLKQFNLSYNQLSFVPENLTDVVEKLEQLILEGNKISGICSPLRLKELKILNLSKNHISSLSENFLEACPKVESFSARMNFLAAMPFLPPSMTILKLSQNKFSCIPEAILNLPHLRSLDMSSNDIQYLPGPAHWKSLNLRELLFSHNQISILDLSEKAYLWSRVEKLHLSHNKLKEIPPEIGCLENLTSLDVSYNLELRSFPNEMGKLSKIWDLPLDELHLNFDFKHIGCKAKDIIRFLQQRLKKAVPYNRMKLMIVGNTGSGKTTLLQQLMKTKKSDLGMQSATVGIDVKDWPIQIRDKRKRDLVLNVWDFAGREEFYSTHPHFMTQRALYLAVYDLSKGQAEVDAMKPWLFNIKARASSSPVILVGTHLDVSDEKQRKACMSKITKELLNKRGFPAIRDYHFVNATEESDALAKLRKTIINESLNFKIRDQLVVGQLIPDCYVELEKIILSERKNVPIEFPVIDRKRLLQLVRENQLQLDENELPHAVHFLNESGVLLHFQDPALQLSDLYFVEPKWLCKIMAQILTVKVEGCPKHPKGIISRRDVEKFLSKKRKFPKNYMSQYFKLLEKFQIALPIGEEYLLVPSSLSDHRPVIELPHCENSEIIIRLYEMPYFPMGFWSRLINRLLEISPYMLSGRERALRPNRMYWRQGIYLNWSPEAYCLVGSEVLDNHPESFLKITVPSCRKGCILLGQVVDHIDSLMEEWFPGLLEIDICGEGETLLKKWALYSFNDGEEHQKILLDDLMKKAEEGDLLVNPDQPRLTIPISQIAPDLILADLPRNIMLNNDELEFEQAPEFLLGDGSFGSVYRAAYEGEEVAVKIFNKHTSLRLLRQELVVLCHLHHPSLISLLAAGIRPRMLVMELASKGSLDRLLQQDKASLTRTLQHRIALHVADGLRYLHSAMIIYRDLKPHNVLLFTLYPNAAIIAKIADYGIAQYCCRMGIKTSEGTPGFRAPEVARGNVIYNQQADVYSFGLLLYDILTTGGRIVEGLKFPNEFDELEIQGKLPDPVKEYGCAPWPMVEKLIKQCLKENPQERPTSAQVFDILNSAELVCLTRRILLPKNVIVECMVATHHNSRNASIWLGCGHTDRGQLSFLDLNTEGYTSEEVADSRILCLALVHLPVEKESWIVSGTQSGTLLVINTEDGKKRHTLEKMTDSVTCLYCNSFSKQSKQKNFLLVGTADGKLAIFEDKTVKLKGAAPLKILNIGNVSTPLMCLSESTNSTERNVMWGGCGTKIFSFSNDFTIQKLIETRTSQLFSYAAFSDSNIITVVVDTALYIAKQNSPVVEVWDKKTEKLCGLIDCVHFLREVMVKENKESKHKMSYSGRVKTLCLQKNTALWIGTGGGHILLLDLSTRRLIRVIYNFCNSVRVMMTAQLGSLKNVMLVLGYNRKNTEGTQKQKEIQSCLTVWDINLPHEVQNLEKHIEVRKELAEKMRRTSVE

Row | pIC50 (LRRK2) | pKi (SYK kinase) | SMILES
1 | 6.00 to 7.00 | 7.00 to 8.00 | COc1ccc(Nc2nc(C3CCN(C)CC3)nc3cn[nH]c23)cc1OC [Example #51, N-(3,4-dimethoxyphenyl)-5-(1-methylpiperidin-4-yl)-1H-pyrazolo[4,3-d]pyrimidin-7-amine]
2 | 6.00 to 7.00 | 7.00 to 8.00 | COc1ccc(-c2nc(Nc3ccc4[nH]ncc4c3)c3[nH]ncc3n2)cc1OC [Example #40, 5-(3,4-dimethoxyphenyl)-N-(1H-indazol-5-yl)-1H-pyrazolo[4,3-d]pyrimidin-7-amine]
3 | 6.00 to 7.00 | 7.00 to 8.00 | CC1(C)CNc2cc(Nc3nc(-c4cccs4)nc4cn[nH]c34)ccc2S1 [Example #173, 2,2-dimethyl-N-(5-(thiophen-2-yl)-1H-pyrazolo[4,3-d]pyrimidin-7-yl)-3,4-dihydro-2H-benzo[b][1,4]thiazin-6-amine]
4 | 6.00 to 7.00 | 7.00 to 8.00 | COc1ccc(Nc2nc(-c3cccc(-c4cccnc4)c3)nc3cn[nH]c23)cc1OC [Example #101, N-(3,4-dimethoxyphenyl)-5-(3-(pyridin-3-yl)phenyl)-1H-pyrazolo[4,3-d]pyrimidin-7-amine]
5 | 6.00 to 7.00 | > 8.00 | COc1cccc(-c2nc(Nc3ccc4cn[nH]c4c3)c3[nH]ncc3n2)c1 [Example #67, N-(1H-indazol-6-yl)-5-(3-methoxyphenyl)-1H-pyrazolo[4,3-d]pyrimidin-7-amine]
6 | 6.00 to 7.00 | > 8.00 | COc1ccc(Nc2nc(-c3ccccc3F)nc3cn[nH]c23)cc1OC [Example #232, N-(3,4-dimethoxyphenyl)-5-(2-fluorophenyl)-1H-pyrazolo[4,3-d]pyrimidin-7-amine]
7 | 6.00 to 7.00 | > 8.00 | O=C1CCc2ccc(Nc3nc(-c4nccs4)nc4cn[nH]c34)cc2N1 [Example #186, 7-((5-(thiazol-2-yl)-1H-pyrazolo[4,3-d]pyrimidin-7-yl)amino)-3,4-dihydroquinolin-2(1H)-one]
8 | 6.00 to 7.00 | > 8.00 | COc1ccc(-c2nc(Nc3ccc(N4CCS(=O)(=O)CC4)cc3)c3[nH]ncc3n2)cc1 [Example #169, 4-(4-((5-(4-methoxyphenyl)-1H-pyrazolo[4,3-d]pyrimidin-7-yl)amino)phenyl)thiomorpholine 1,1-dioxide]
9 | 6.00 to 7.00 | > 8.00 | CCN1CCN(c2ccc(Nc3nc(-c4ccccc4)nc4cn[nH]c34)cc2)CC1 [Example #119, N-(4-(4-ethylpiperazin-1-yl)phenyl)-5-phenyl-1H-pyrazolo[4,3-d]pyrimidin-7-amine]
10 | > 8.00 | 7.00 to 8.00 | O=C(c1ccc(Nc2nc(-c3cccs3)nc3cn[nH]c23)cc1)N1CCCC1 [Example #135, pyrrolidin-1-yl(4-((5-(thiophen-2-yl)-1H-pyrazolo[4,3-d]pyrimidin-7-yl)amino)phenyl)methanone]
11 | 6.00 to 7.00 | > 8.00 | c1cc(-c2nc(Nc3ccc4cn[nH]c4c3)c3[nH]ncc3n2)ccn1 [Example #16, N-(1H-indazol-6-yl)-5-(pyridin-4-yl)-1H-pyrazolo[4,3-d]pyrimidin-7-amine]
12 | 6.00 to 7.00 | 7.00 to 8.00 | c1cc2[nH]ncc2cc1Nc1nc(-c2ccc(N3CCCC3)nc2)nc2cn[nH]c12 [Example #14, N-(1H-indazol-5-yl)-5-(6-(pyrrolidin-1-yl)pyridin-3-yl)-1H-pyrazolo[4,3-d]pyrimidin-7-amine]
13 | 6.00 to 7.00 | 6.00 to 7.00 | COc1cccc(-c2nc(Nc3cc(C4CC4)[nH]n3)c3[nH]ncc3n2)c1 [Example #88, N-(5-cyclopropyl-1H-pyrazol-3-yl)-5-(3-methoxyphenyl)-1H-pyrazolo[4,3-d]pyrimidin-7-amine]
14 | 7.00 to 8.00 | 7.00 to 8.00 | COc1ccc(-c2nc(Nc3ccc4c(c3)NC(=O)CO4)c3[nH]ncc3n2)cc1OC [Example #26, 6-((5-(3,4-dimethoxyphenyl)-1H-pyrazolo[4,3-d]pyrimidin-7-yl)amino)-2H-benzo[b][1,4]oxazin-3(4H)-one]
